From US20050239832A1, “Methods of treatment of amyloidosis using bi-cyclic aspartyl protease inhibitors” (priority 2004, published 2005) come the findings set out here.

In one data set the test system is A-beta. Briefly: Efficacy of compounds to inhibit A-beta concentration (% inhibition vs vehicle control). The data set is classed as in vivo, rat. The protocol:
Efficacious compounds of the present invention are those able to decrease the amount of A-beta produced compared to a control, where beta-secretase mediated cleavage is observed and measured in the absence of the compounds. Detection of efficacy can be by analysis of A-beta levels, for example, by immunoassay, fluorometric or chromogenic assay, HPLC, or other means of detection. The efficacy of the compounds of formula (I) was determined as a percentage inhibition corresponding to A-beta concentrations for tissue treated and untreated with a compound of formula (I).
The invention encompasses compounds of formula (I) that are efficacious. Efficacy is calculated as a percentage of concentrations as follows: Efficacy=(1−(total A-beta in dose group/total A-beta in vehicle control))*100% wherein the “total A-beta in dose group” equals the concentration of A-beta in the tissue, (e.g., rat brain) treated with the compound, and the “total A-beta in vehicle control” equals the concentration of A-beta in the tissue, yielding a % inhibition of A-beta production. Statistical significance is determined by p-value<0.05 using the Mann Whitney t-test. See, for example, Dovey et al., J. Neurochemistry, 2001, 76:173-181. […]

Data set [1] in a line: Oral bioavailability in the male Sprague-Dawley rat (IV and PO). In kind it is in vivo. The note with it: plasma, 10 mg/kg. The protocol: The invention encompasses compounds of formula (I) that are orally bioavailable. Generally, oral bioavailability is defined as the fraction of orally administered dose reaching systemic circulation. Oral bioavailability can be determined following both an intravenous (IV) and oral (PO) administration of a test compound.
Oral bioavailability was determined in the male Sprague-Dawley rat following both IV and PO administration of test compound. Two month-old male rats (250-300 g) were surgically implanted with polyethylene (PE-50) cannula in the jugular vein while under isoflurane anesthesia the day before the in-life phase. Animals were fasted overnight with water ad libitum, then dosed the next day. The dosing regime. consisted of either a 5 mg/kg (2.5 mL/kg) IV dose (N=3) administered to the jugular vein cannula, then flushed with saline, or a 10 mg/kg (5 mL/kg) PO dose (N=3) by esophageal gavage. Compounds were formulated with 10% Solutol in 5% dextrose at 2 mg/mL. Subsequent to dosing, blood was collected at 0.016 (IV only), 0.083, 0.25, 0.5, 1, 3, 6, 9, and 24 h post administration, and heparinized plasma was recovered following centrifugation.
Compounds were extracted from samples following precipitation of the plasma proteins by methanol. The resulting supernatants were evaporated to dryness and reconstituted with chromatographic mobile phase (35% acetonitrile in 0.1% formic acid) and injected onto a reverse phase C18 column (2×50 mm, 5 μm, BDS Hypersil). Detection was facilitated with a multi-reaction-monitoring experiment on a tandem triple quadrupole mass spectrometer (LC/MS/MS) following electrospray ionization. Experimental samples were compared to calibration curves prepared in parallel with aged match rat plasma and quantitated with a weighted 1/x linear regression. The lower limit of quantization (LOQ) for the assay was typically 0.5 ng/mL.
Oral bioavailability (% F) is calculated from the dose normalized ratio of plasma exposure following oral administration to the intravenous plasma exposure in the rat by the following equation % F=(AUCpo/AUCiv)×(Div/Dpo)×100% where D is the dose and AUC is the area-under-the-plasma-concentration-time-curve from 0 to 24 h. AUC is calculated from the linear trapezoidal rule by AUC=((C2+C1)/2)×(T2−T1) where C is concentration and T is time.
Pharmacokinetic parameters were calculated by a non-compartmental approach. See, for example, Gibaldi, M. and Perrier, D., Pharmacokinetics, Second Edition, 1982, Marcel Dekker Inc., New York, N.Y., pp 409-418.

For the next data set, the target named is BACE (Homo sapiens, UniProt P56817). Description: BACE EC50 (enzyme inhibition, Table on oral bioavailability). In kind it is biochemical.
Sequence of BACE (P56817 46-501): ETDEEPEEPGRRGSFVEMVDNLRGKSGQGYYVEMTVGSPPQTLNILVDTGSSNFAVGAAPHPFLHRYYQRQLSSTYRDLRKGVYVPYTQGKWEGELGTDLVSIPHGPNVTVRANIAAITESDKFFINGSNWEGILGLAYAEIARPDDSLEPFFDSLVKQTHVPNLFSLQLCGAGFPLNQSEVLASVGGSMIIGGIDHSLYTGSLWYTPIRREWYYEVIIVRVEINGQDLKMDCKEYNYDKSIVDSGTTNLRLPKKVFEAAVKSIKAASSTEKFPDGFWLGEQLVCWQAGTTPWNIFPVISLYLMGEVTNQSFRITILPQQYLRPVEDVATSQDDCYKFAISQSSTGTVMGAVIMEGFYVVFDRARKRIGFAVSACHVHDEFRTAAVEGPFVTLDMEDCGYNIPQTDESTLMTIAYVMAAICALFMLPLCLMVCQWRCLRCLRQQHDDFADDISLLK
In data set [2] the test system is HEKp293 cells transfected with APP751 containing the Swedish mutation (A-beta). Briefly: cells. In kind it is cell-based. The note with it: Homo sapiens, read-out: Cell EC50 (nM). The source says: An exemplary assay for the analysis of inhibition of beta-secretase activity utilizes the human embryonic kidney cell line HEKp293 (ATCC Accession No. CRL-1573) transfected with APP751 containing the naturally occurring double mutation Lys651Met652 to Asn651Leu652 (numbered for APP751), commonly called the Swedish mutation and shown to overproduce A-beta (Citron et al., 1992, Nature, 360:672-674), as described in U.S. Pat. No. 5,604,102.
At the end of the treatment period, conditioned media is analyzed for beta-secretase activity, for example, by analysis of cleavage fragments. A-beta can be analyzed by immunoassay, using specific detection antibodies.

Data set [3] deals with catD versus beta-secretase (BACE). Briefly: Selectivity for inhibiting BACE over aspartyl protease catD (ratio of IC50 values). The data set is classed as biochemical. The note with it: average of four experimental runs. The protocol: Investigation of potential beta-secretase inhibitors produced compounds with increased selectivity for beta-secretase over other aspartyl proteases such as cathepsin D (catD), cathepsin E (catE), HIV protease, and renin. Selectivity was calculated as a ratio of inhibition (IC50) values in which the inhibition of beta-secretase was compared to the inhibition of other aspartyl proteases. […] Alternatively, a compound is selective when its binding affinity is greater for its desired target (e.g., beta-secretase) versus a secondary target (e.g., catD). Accordingly, methods of treatment include administering selective compounds of formula (I) having a lower IC50 value for inhibiting beta-secretase, or greater binding affinity for beta-secretase, than for other aspartyl proteases such as catD, catE, HIV protease, or renin. A selective compound is also capable of producing a higher ratio of desired effects to adverse effects, resulting in a safer method of treatment.
The compounds of formula (I) can be selective for beta-secretase versus catD. […] Selectivity is reported as the ratio of IC50(catD):IC50(BACE).
In the following examples, each value is an average of four experimental runs and multiple values for one compound indicate that more than one experiment was conducted.

The next data set is described as follows: in vivo. The note with it: CF-1, mouse, iv. The protocol:
The following assay was employed to determine the brain penetration of compounds encompassed by the present invention.
In-life phase: Test compounds were administered to CF-1 (20-30 g) mice at 10 μmol/kg (4 to 7 mg/kg) following IV administration in the tail vein. Two time-points, 5 and 60 min, were collected post dose. Four mice were harvested for heparinized plasma and non-perfused brains at each time-point for a total of 8 mice per compound.
Analytical phase: Samples were extracted and evaporated to dryness, then reconstituted and injected onto a reverse phase chromatographic column while monitoring the effluent with a triple quadrupole mass spectrometer. Quantitation was then performed with a 1/x^2 weighted fit of the least-squares regression from calibration standards prepared in parallel with the in vivo samples. The LOQ is generally 1 ng/mL and 0.5 ng/g for the plasma and brain respectively. Data was reported in micromolar (μM) units. Brain levels were corrected for plasma volumes (16 μL/g).

Setting [4] is: 100 mg/kg, cortex, inhibition of total A-beta vs vehicle control.
Setting [5] is: 100 mg/kg, plasma, inhibition of total A-beta vs vehicle control.

As for `CCc1cc(CC(C)(C)C)cc2c1CCCC2NCC(O)C(Cc1cc(F)cc(F)c1)NC(C)=O` (single isomer, unassigned) [91.2 Diastereomer A], the “Efficacy (% Inhibition, 100 mg/kg) cortex” value in the data set on A-beta (setting [4]) turned out to be 44%. Further, the “Efficacy (% Inhibition, 100 mg/kg) plasma” value in the data set on A-beta (setting [5]) is on record as 57%.
The like results for `CC(=O)NC(Cc1cc(F)cc(F)c1)C(O)CNC1CCNc2ccc(CC(C)(C)C)cc21` (single isomer, unassigned) [91.4 Diastereomer B] were, in that order, 18% and 59%.
In the case of `CCc1ccc2c(c1)C(NCC(O)C(Cc1cc(F)cc(F)c1)NC(C)=O)CCC2` (single isomer, unassigned) [91.5 Diastereomer A], the “Efficacy (% Inhibition, 100 mg/kg) cortex” value in the data set on A-beta (setting [4]) stood at 35%. In the data set on A-beta (setting [5]), the “Efficacy (% Inhibition, 100 mg/kg) plasma” value came out at 44%.
Turning to `CCc1cc(CC(C)(C)C)cc2c1CCCC2NCC(O)C(Cc1cc(F)cc(F)c1)NC(C)=O` (single isomer, unassigned) [91.8 Diastereomer A], in data set [1], the bioavailability was determined as 23.3%. The EC50 is 12 nM on BACE and 32 nM in data set [2].
For `CC(=O)NC(Cc1cc(F)cc(F)c1)C(O)CNC1CCNc2ccc(CC(C)(C)C)cc21` (single isomer, unassigned) [91.10 Diastereomer B], the bioavailability in data set [1] stood at 5%. Besides, the 50% effective concentration (EC50) on BACE came to 190 nM; in data set [2] it was 13 nM.
`CC(=O)NC(Cc1cc(F)cc(F)c1)C(O)CNC1CCCc2ccc(CC(C)(C)C)cc21` (stereo not drawn) [Example 91.1, N-{1-(3,5-Difluoro-benzyl)-3-[7-(2,2-dimethyl-propyl)-1,2,3,4-tetrahydro-naphthalen-1-ylamino]-2-hydroxy-propyl}-acetamide] displayed a bioavailability in data set [1] of 15%. Besides, on BACE, the EC50 stood at 9 nM. Besides, in the data set with A-beta (rat, in vivo), the “Efficacy (% Inhibition, 100 mg/kg) cortex” value stood at 47% and the “Efficacy (% Inhibition, 100 mg/kg) plasma” value is reported as 63%.
In the case of `CC(C)(C)Cc1ccc2c(c1)C(NCC(O)C(Cc1cc(F)cc(F)c1)NC(=O)CF)CCC2` (stereo not drawn) [Example 91.3, N-{1-(3,5-Difluoro-benzyl)-3-[7-(2,2-dimethyl-propyl)-1,2,3,4-tetrahydro-naphthalen-1-ylamino]-2-hydroxy-propyl}-2-fluoro-acetamide], in the data set on A-beta (setting [4]), the “Efficacy (% Inhibition, 100 mg/kg) cortex” value came out at 14%. Moreover, the “Efficacy (% Inhibition, 100 mg/kg) plasma” value in the data set with A-beta (setting [5]) was 23%.
Turning to `CC(=O)NC(Cc1cc(F)cc(F)c1)C(O)CNC1c2cc(CC(C)(C)C)ccc2CCC1CO` (stereo not drawn) [Example 91.6, N-{1-(3,5-Difluoro-benzyl)-3-[7-(2,2-dimethyl-propyl)-2-hydroxymethyl-1,2,3,4-tetrahydro-naphthalen-1-ylamino]-2-hydroxy-propyl}-acetamide], the “Selectivity IC50 catD/ IC50 BACE” value in data set [3] is 4.4.
On the same count and under the same terms, under `CCc1ccc2c(c1)C(NCC(O)C(Cc1cc(F)cc(F)c1)NC(C)=O)CCN2` (stereo not drawn) [Example 91.7, N-[1-(3,5-Difluoro-benzyl)-3-(6-ethyl-1,2,3,4-tetrahydro-quinolin-4-ylamino)-2-hydroxy-propyl]-acetamide] stands 2.1.
Compound `CCc1ccc2c(c1)C(NCC(O)C(Cc1cc(F)cc(F)c1)NC(C)=O)CCC2` (stereo not drawn) [Example 91.11, N-[1-(3,5-Difluoro-benzyl)-3-(7-ethyl-1,2,3,4-tetrahydro-naphthalen-1-ylamino)-2-hydroxy-propyl]-acetamide] came in with a bioavailability in data set [1] of 14.3%. Besides, the EC50 at BACE amounted to 210 nM.
In the data set “in vivo”, `CC(C)(C)NC(=O)[C@@H]1CN(Cc2cccnc2)CCN1C[C@@H](O)C[C@@H](Cc1ccccc1)C(=O)N[C@H]1c2ccccc2C[C@H]1O` [Indinavir] showed a concentration at 5 min of 165 nM and a concentration at 60 min of 11 nM.
